Results reported in publication PMC8746858 (Molecules, 2021).
Converted amounts (≈) assume the structure as drawn. Read-outs that look alike come from different tables or passages of the source.

Key:
[1] = Solubility in typical solvents, modified Vogel method; settings: 25 °C; for Solubility in Water (63.1): ET(30) in parentheses
From the text: For this purpose, dimethyl sulfoxide, ethanol, chloroform, ethyl acetate, diethyl ether, toluene, and n-hexane were used as solvents.

[2] = Solubility in water, HPLC of saturated solutions
Experimental: Then, the obtained saturated solutions were diluted 100 times and analyzed. […] A mixture of 50% acetonitrile and 50% water was used as the mobile phase. The flow rate was 1 cm^3·min^−1. The column temperature was 30 °C. A Luna® Omega 3 µm Polar C18 100 Å column with dimensions of 150 × 4.6 mm was used. The injection volume for these samples was 50 mm^3. Each measurement was performed in triplicate, and the results were averaged.

[3] = TG, air atmosphere, 10 °C·min^−1
[4] = tested on: fibroblasts (NIH/3T3 cells); test: cells
Experimental: (§1) Finally, control experiments with non-treated cells were performed.
The effect of the compounds on the viability of murine 3T3 fibroblasts was estimated using NRU assay. After the incubation time (24 h) cells, media were removed, then to each well we added 100 µL of medium containing neutral red (50 µg/mL). […] The plates were shaken for 10 min at room temperature. Then, the absorption at 540 nm was measured using a microplate reader (Biosan). The results were calculated for each sample concentration as a percentage of medium control. The values are presented as mean ± standard deviation of three independent experiments.

[5] = tested on: human keratinocytes (HaCaT cells); test: MTT viability assay; settings: for Viability of HaCaT after 48 h Treatment with 0.4 mM IL or SA: calculated as percentage of medium control, in %; for IC50: HaCaT, 24 h
Experimental: as §1
(§2) We applied an assay based on the reduction of methyl thiazol tetrazolium bromide (MTT) to assess the effect of the compounds on the viability of HaCaT cells. […] After that, the cells were lysed with a solution of DMSO:ethanol (1:1 v/v). The absorbance of the reduced formazan dye product was read at 560 nm in a microplate reader (Biosan). The results were calculated for each sample concentration as a percentage of medium control. The values are presented as mean ± standard deviation of three independent experiments.

IL-6 = IL-6 ELISA in supernatant of LPS-stimulated HaCaT cells; format: cell-based, human; settings: 12 h pretreatment then LPS 12 h
Experimental: HaCaT cells were seeded in a 24-well plate at a density of 5 × 10^4 cells/well and maintained in DMEM high glucose with 10% FBS until an 80% confluent monolayer was reached. […] Control experiments with LPS-treated cells only were conducted. Controls with cells treated with neither compounds nor LPS were also performed. After that, the cell culture supernatant was collected, and the IL-6 cytokine was measured using an ELISA kit.

MTT viability assay = settings: human, HaCaT keratinocytes
Experimental: as §1, §2

[6] = NIH/3T3, 24 h, neutral red uptake
[7] = read-out: IC50 (in mM), NIH/3T3, 24 h, neutral red uptake
[8] = the two tested concentrations (1 and 10 µM)

SMILES | Solubility in Chloroform (39.1) [1] | Solubility in DMSO (45.1) [1] | Solubility in Diethyl ether (34.5) [1] | Solubility in Ethanol (51.9) [1] | Solubility in Ethyl Acetate (38.1) [1] | Solubility in Toluene (33.9) [1] | Solubility in n-Hexane (31.0) [1] | Solubility in Water (63.1) [1] | Solubility in Water at 25 °C ([2]; g of compound per dm^3) [g·dm^−3] | Tonset, the onset of the thermal degradation [3] [°C] | IC50 [4, 6] [µg/mL] | IC50 [4, 7] [mM] | Viability of HaCaT after 48 h Treatment with 0.4 mM IL or SA [5] | IC50 ([5]; MTT) [µg/mL] | IC50 ([5]; read-out: IC50 (in mM), MTT) [mM] | further results
CCOC(=O)[C@@H](N)Cc1ccccc1.O=C(O)c1ccccc1O [[PheOEt][SA], L-phenylalanine ethyl ester salicylate] | + (soluble >100 mg·cm^−3) | + (soluble >100 mg·cm^−3) | + (soluble >100 mg·cm^−3) | +/− (partially soluble 33–100 mg·cm^−3) | +/− (partially soluble 33–100 mg·cm^−3) | − (insoluble < 33 mg·cm^−3) | − (insoluble < 33 mg·cm^−3) | − (insoluble < 33 mg·cm^−3) | 9.732 ± 0.010 | 181.1 | 1062 ± 15 | ~3.2 | 105 ± 4 | 2200 ± 150 | ~6.6 | Level of IL-6 in LPS-stimulated HaCaT (IL-6; [8]): comparable to those produced by 1 µM SA
CCOC(=O)[C@@H](N)C(C)C.O=C(O)c1ccccc1O [[ValOEt][SA], L-valine ethyl ester salicylate] | + (soluble >100 mg·cm^−3) | + (soluble >100 mg·cm^−3) | + (soluble >100 mg·cm^−3) | + (soluble >100 mg·cm^−3) | + (soluble >100 mg·cm^−3) | + (soluble >100 mg·cm^−3) | − (insoluble < 33 mg·cm^−3) | +/− (partially soluble 33–100 mg·cm^−3) | 26.070 ± 0.026 | 157.6 | 700 ± 8 | ~2.5 | 74 ± 2 | 600 ± 10 | ~2.1 | Level of IL-6 in LPS-stimulated HaCaT (IL-6; [8]): comparable to those produced by 1 µM SA
O=C(O)c1ccccc1O [SA, Salicylic acid, reference compound] | +/− (partially soluble 33–100 mg·cm^−3) | + (soluble >100 mg·cm^−3) | + (soluble >100 mg·cm^−3) | + (soluble >100 mg·cm^−3) | + (soluble >100 mg·cm^−3) | +/− (partially soluble 33–100 mg·cm^−3) | − (insoluble < 33 mg·cm^−3) | +/− (partially soluble 33–100 mg·cm^−3) | – | 171.3 | – | – | – | – | – | Solubility in Water at 25 °C ([2]; amount of active compound (SA) per dm^3): 3.852 ± 0.004 g SA·dm^−3; solubility ([2]; water): 3852 ± 4 µg/mL (≈ 27.9 mM); IC50 ([4]; Mus musculus, NIH3T3, 24 h): 300 ± 6 µg/mL; IC50 ([4]; Mus musculus, NIH3T3, 24 h, read-out: IC50 (in mM)): ~2.2 mM; viability at 48 h, 0.4 mM (MTT viability assay): 71 ± 3%; IC50 ([5]; Homo sapiens): 200 ± 100 µg/mL; IC50 ([5]; Homo sapiens, read-out: IC50 (in mM)): ~1.6 mM
CC(C)OC(=O)[C@@H](N)C(C)C.O=C(O)c1ccccc1O [[ValOiPr][SA], L-valine isopropyl ester salicylate] | + (soluble >100 mg·cm^−3) | + (soluble >100 mg·cm^−3) | +/− (partially soluble 33–100 mg·cm^−3) | + (soluble >100 mg·cm^−3) | +/− (partially soluble 33–100 mg·cm^−3) | + (soluble >100 mg·cm^−3) | − (insoluble < 33 mg·cm^−3) | +/− (partially soluble 33–100 mg·cm^−3) | 18.458 ± 0.018 | 163.1 | 658 ± 7 | ~2.2 | 66 ± 2 | 900 ± 50 | ~3.1 | Level of IL-6 in LPS-stimulated HaCaT (IL-6; 10 μM): no effect or negligible inhibition of the IL-6 production
CCCOC(=O)[C@@H](N)C(C)C.O=C(O)c1ccccc1O [[ValOPr][SA], L-valine propyl ester salicylate] | + (soluble >100 mg·cm^−3) | + (soluble >100 mg·cm^−3) | + (soluble >100 mg·cm^−3) | + (soluble >100 mg·cm^−3) | + (soluble >100 mg·cm^−3) | + (soluble >100 mg·cm^−3) | − (insoluble < 33 mg·cm^−3) | +/− (partially soluble 33–100 mg·cm^−3) | 21.789 ± 0.024 | 177.9 | 1310 ± 17 | – | 74 ± 2 | 500 ± 50 | ~1.8 | –
CCOC(=O)[C@@H](N)CC(C)C.O=C(O)c1ccccc1O [[LeuOEt][SA], L-leucine ethyl ester salicylate] | – | – | – | – | – | – | – | – | – | – | 894 ± 12 | ~3 | – | – | – | Level of IL-6 in LPS-stimulated HaCaT (IL-6; 1 µM): no effect or negligible inhibition of the IL-6 production
CCCOC(=O)[C@@H](N)Cc1ccccc1.O=C(O)c1ccccc1O [[PheOPr][SA], L-phenylalanine propyl ester salicylate] | + (soluble >100 mg·cm^−3) | + (soluble >100 mg·cm^−3) | + (soluble >100 mg·cm^−3) | +/− (partially soluble 33–100 mg·cm^−3) | +/− (partially soluble 33–100 mg·cm^−3) | − (insoluble < 33 mg·cm^−3) | − (insoluble < 33 mg·cm^−3) | − (insoluble < 33 mg·cm^−3) | 1.143 ± 0.001 | 185.0 | 662 ± 9 | ~1.9 | 93 ± 4 | 650 ± 100 | ~1.9 | Level of IL-6 in LPS-stimulated HaCaT (IL-6; 1 µM): completely protected from inflammation; Level of IL-6 in LPS-stimulated HaCaT (IL-6; 10 μM): no effect or negligible inhibition of the IL-6 production
CCCCOC(=O)[C@@H](N)C(C)C.O=C(O)c1ccccc1O [[ValOBu][SA], L-valine butyl ester salicylate] | + (soluble >100 mg·cm^−3) | + (soluble >100 mg·cm^−3) | + (soluble >100 mg·cm^−3) | +/− (partially soluble 33–100 mg·cm^−3) | + (soluble >100 mg·cm^−3) | + (soluble >100 mg·cm^−3) | − (insoluble < 33 mg·cm^−3) | +/− (partially soluble 33–100 mg·cm^−3) | 14.490 ± 0.014 | 171.8 | 309 ± 9 | ~1 | 74 ± 1 | 600 ± 200 | ~1.9 | –
